Reference: the supplement of paper PMC12463676, “Small-molecule dissolution of stress granules by redox modulation benefits ALS models” (Nature Chemical Biology, 2025)

How the values were obtained:
potassium arsenate = compound: O=[As]([O-])(O)O.[K+] [potassium arsenate]; assay: thermal stability z-score vs DMSO; higher = more thermally stabilized by treatment; details: HeLa; arsenate concentration 1 mM
Description: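 Cellular thermal proteome profiling in HeLa cells treated with 1 mM arsenate for 1 h (DMSO pretreatment), heated to ten temperatures (37-66.3 °C). Soluble protein was quantified by TMT mass spectrometry relative to DMSO controls; the thermal stability score was transformed to a z-score; mean of n = 3 experiments.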

lipoamide = compound: NC(=O)CCCCC1CCSS1 [lipoamide]; assay: as above; details: HeLa, lipoamide concentration 100 µM
Description: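 Cellular thermal proteome profiling in HeLa cells. Cells were treated with 100 µM lipoamide for 1 h, with or without 1 mM arsenate for a further 1 h, then heated to ten temperatures (37-66.3 °C), and soluble protein was quantified by TMT mass spectrometry relative to 0.1% DMSO controls. The thermal stability score (sum of log2 fold changes minus the abundance score) was transformed to a z-score; mean of n = 3 experiments.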

[1] = arsenate co-treatment: 1 mM arsenate 1 h
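Note: each temperature applied for 3 min, abundance score taken as mean log2 fold change at the two lowest temperatures, z-score obtained by mean subtraction and division by SD.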

UniProt Q5T2E6, sequence (Q5T2E6 whole entry): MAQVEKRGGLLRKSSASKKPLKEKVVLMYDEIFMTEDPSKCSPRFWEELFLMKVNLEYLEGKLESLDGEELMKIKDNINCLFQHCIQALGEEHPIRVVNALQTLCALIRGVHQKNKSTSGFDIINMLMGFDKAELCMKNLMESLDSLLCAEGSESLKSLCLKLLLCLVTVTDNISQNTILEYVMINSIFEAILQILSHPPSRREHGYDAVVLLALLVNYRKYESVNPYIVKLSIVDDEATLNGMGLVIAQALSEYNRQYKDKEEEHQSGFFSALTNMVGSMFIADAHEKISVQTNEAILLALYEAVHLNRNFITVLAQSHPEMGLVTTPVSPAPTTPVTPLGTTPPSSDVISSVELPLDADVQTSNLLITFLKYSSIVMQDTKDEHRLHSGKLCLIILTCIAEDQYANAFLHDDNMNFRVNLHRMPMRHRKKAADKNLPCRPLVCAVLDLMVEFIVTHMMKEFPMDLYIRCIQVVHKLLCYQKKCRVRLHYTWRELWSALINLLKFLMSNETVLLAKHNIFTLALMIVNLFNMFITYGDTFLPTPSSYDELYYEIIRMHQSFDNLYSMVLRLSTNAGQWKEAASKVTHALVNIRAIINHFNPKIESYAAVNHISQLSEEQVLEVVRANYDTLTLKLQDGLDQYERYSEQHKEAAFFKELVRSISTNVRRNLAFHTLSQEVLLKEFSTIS
UniProt P35241, sequence (P35241 whole entry): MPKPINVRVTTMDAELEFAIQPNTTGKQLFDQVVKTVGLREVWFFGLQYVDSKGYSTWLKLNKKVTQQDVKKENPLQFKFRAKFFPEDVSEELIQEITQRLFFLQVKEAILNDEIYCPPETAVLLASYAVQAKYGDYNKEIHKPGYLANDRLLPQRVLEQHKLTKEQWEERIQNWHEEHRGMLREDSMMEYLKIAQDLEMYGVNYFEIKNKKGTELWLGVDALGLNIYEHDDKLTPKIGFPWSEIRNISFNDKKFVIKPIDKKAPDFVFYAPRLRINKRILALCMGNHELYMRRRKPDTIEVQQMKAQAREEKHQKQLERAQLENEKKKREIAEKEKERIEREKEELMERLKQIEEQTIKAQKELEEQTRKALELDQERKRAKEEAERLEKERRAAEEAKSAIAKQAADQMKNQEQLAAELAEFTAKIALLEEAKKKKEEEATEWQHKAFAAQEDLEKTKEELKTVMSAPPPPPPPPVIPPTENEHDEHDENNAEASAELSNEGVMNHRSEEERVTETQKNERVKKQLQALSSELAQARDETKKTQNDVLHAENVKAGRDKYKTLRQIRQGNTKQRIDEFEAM
UniProt O14908, sequence (O14908 whole entry): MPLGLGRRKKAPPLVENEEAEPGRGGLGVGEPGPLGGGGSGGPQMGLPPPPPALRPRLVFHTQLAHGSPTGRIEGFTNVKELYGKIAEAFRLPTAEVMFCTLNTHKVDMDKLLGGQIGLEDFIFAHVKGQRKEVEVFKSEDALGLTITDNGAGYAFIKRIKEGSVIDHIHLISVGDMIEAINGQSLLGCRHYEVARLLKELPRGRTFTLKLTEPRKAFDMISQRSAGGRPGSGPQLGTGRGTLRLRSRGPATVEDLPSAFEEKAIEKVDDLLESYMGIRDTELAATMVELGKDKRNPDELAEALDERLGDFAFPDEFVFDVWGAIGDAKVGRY
UniProt Q8IZE3, sequence (Q8IZE3 whole entry): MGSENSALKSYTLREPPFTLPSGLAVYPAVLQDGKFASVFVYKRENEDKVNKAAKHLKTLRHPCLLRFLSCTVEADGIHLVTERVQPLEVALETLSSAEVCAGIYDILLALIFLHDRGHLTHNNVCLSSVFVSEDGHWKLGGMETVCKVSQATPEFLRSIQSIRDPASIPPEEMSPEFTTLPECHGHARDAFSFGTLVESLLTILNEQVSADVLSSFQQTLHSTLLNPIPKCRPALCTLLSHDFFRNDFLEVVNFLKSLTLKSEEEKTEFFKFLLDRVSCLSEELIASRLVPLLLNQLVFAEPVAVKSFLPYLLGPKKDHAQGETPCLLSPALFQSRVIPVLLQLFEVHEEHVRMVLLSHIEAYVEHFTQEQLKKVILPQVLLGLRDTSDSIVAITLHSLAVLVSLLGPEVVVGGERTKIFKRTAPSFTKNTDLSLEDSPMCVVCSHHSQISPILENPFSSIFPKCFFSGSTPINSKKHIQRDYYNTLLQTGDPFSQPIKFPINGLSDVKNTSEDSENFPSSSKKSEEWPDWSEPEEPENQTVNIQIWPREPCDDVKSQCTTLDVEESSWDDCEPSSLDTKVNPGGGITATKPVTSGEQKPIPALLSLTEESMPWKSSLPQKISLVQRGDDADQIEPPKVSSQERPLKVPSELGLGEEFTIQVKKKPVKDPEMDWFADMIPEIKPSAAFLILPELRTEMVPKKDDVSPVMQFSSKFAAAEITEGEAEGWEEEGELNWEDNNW
UniProt Q9Y5P4, sequence (Q9Y5P4 whole entry): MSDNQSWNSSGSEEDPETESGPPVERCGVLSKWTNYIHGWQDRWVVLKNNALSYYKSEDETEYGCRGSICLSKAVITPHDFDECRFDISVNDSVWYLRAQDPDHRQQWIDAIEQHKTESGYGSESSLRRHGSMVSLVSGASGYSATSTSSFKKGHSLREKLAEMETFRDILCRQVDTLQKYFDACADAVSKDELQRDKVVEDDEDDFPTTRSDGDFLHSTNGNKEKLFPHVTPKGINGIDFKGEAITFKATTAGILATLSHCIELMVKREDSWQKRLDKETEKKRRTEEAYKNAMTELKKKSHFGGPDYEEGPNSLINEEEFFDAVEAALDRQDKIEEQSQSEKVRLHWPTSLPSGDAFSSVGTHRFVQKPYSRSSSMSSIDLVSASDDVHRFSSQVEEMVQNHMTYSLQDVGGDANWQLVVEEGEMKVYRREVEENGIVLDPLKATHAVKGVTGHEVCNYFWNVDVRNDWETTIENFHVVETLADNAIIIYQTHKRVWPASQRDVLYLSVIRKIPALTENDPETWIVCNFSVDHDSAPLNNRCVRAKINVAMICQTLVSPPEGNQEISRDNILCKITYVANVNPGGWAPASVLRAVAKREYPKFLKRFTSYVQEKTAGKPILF
UniProt O75976, sequence (O75976 whole entry): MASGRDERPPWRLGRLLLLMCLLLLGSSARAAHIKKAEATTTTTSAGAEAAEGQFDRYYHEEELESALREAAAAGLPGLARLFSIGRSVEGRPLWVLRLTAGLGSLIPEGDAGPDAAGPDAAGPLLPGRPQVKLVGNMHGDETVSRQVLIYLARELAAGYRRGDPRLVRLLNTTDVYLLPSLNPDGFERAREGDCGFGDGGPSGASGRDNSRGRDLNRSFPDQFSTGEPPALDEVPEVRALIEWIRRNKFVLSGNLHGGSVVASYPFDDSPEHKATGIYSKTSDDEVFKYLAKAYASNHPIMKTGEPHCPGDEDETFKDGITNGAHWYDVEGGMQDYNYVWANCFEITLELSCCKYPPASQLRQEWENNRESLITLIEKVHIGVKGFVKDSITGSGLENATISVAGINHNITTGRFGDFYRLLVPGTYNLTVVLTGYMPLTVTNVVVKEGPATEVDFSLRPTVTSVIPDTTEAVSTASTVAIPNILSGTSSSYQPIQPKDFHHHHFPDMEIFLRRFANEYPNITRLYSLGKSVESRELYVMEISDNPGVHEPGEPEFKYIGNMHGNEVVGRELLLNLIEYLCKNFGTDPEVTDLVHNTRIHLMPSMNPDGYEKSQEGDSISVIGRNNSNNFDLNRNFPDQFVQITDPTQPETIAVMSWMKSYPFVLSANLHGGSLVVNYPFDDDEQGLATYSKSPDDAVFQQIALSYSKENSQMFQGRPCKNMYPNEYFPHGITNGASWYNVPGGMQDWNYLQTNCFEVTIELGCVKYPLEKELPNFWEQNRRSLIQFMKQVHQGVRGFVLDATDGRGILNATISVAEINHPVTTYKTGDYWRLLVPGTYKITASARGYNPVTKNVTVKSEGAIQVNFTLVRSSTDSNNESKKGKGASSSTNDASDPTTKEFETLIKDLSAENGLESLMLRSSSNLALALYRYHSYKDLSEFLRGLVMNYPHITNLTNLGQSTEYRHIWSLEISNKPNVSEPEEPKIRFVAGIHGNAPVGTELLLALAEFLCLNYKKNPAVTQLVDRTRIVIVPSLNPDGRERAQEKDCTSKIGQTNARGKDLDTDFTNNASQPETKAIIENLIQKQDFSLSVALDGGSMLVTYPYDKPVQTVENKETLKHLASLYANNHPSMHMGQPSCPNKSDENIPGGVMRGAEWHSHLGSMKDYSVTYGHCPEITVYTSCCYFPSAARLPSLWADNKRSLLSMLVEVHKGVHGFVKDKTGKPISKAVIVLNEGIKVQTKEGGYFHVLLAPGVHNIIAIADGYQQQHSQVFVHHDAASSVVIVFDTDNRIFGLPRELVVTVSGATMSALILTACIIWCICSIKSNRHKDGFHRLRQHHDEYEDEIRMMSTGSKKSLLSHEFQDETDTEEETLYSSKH
UniProt Q9BTE1, sequence (Q9BTE1 whole entry): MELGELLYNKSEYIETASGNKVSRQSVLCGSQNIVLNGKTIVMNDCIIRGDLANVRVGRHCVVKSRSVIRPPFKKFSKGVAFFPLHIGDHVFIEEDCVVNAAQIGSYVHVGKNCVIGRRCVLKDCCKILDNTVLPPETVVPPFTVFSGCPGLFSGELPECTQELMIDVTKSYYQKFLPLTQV
UniProt A8MPS7, sequence (A8MPS7 whole entry): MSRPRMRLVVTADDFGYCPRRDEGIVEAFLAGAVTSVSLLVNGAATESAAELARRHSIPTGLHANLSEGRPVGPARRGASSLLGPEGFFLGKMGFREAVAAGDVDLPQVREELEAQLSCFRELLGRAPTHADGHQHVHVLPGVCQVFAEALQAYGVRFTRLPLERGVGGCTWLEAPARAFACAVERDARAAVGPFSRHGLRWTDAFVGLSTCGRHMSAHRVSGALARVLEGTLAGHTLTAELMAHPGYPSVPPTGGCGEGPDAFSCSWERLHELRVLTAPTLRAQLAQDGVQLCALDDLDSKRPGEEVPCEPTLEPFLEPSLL
UniProt Q9Y5V0, sequence (Q9Y5V0 whole entry): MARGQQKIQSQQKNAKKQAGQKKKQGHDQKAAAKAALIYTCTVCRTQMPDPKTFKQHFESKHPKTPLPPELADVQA

Target	thermal stability z-score (potassium arsenate)	thermal stability z-score (lipoamide; [1])	thermal stability z-score (lipoamide; arsenate co-treatment: none)
MITD1 (UniProt Q8WV92)	0.168	0.39	0.109
RAP1B (UniProt P61224)	0.17	0.74	0.45
UBIAD1 (UniProt Q9Y5Z9)	-0.362	-0.487	-0.317
FZD2 (UniProt Q14332)	0.0158	-1.45	-1.01
ATP5O (UniProt P48047)	-0.119	0.0702	-0.283
TOP1 (UniProt P11387)	-0.734	0.0566	0.449
DCTN5 (UniProt Q9BTE1)	-0.329	-0.414	-0.0773
ALDOC (UniProt P09972)	-0.67	-0.284	-0.526
RPS26 (UniProt P62854)	-0.743	0.0208	0.263
SLC7A6OS (UniProt Q96CW6)	-0.000281	-0.344	0.403
NECAP1 (UniProt Q8NC96)	-0.194	0.133	0.451
RDX (UniProt P35241)	0.883	0.749	0.45
ZFP36L2 (UniProt P47974)	-0.0646	-0.198	0.12
MCTP2 (UniProt Q6DN12)	-0.604	-0.192	-0.145
EXOC4 (UniProt Q96A65)	0.0526	-0.433	-0.0966
MYCBP2 (UniProt O75592)	-0.207	-0.0354	0.179
CCDC51 (UniProt Q96ER9)	-0.324	-0.68	-0.14
RAB7A (UniProt P51149)	0.258	0.164	0.352
UTP3 (UniProt Q9NQZ2)	0.203	0.145	0.194
CDKN2A	0.466	0.99	1.64
OCIAD1 (UniProt Q9NX40)	-0.448	0.0741	-0.143
SCYL3 (UniProt Q8IZE3)	-0.314	-0.406	-0.146
EHD1 (UniProt Q9H4M9)	-0.0304	-0.0636	0.13
CTPS2 (UniProt Q9NRF8)	0.109	0.218	-0.0335
EEF2 (UniProt P13639)	-0.39	-0.0517	0.0227
RPS10 (UniProt P46783)	-0.422	0.895	0.406
RPS20 (UniProt P60866)	-0.0402	1.14	1.14
GIPC1 (UniProt O14908)	-0.251	-0.301	-0.267

Target	thermal stability z-score (potassium arsenate)	thermal stability z-score (lipoamide; [1])	thermal stability z-score (lipoamide; arsenate co-treatment: none)
UniProt E9PSI1	-0.346	-0.0572	-0.622
DTNBP1 (UniProt Q96EV8)	-0.102	0.331	0.505
PPP1CB (UniProt P62140)	0.32	0.928	-0.00317
YIF1B (UniProt Q5BJH7)	0.898	0.452	-0.197
RARS (UniProt P54136)	0.39	-0.341	-0.305
MLLT4 (UniProt P55196)	-0.113	-0.572	-0.126
MRPL11 (UniProt Q9Y3B7)	0.0228	-0.211	0.169
SLC25A4 (UniProt P12235)	0.373	-0.0513	0.0728
POLR2L (UniProt P62875)	0.335	1.27	0.782
CPD (UniProt O75976)	0.546	-0.796	-0.794
PRMT3 (UniProt O60678)	-0.148	-0.336	0.22
TMEM209 (UniProt Q96SK2)	1.25	-0.644	0.109
YDJC (UniProt A8MPS7)	-1.04	-0.851	-1.66
COPS7A (UniProt Q9UBW8)	-0.0728	0.334	0.0778
GXYLT1 (UniProt Q4G148)	0.387	-0.938	-0.906
RHOA (UniProt P61586)	0.103	0.316	0.411
HLCS (UniProt P50747)	-0.0791	-1.26	-0.885
LSS (UniProt P48449)	-0.00616	0.724	0.345
COL4A3BP (UniProt Q9Y5P4)	0.568	-0.466	0.862
CNOT3 (UniProt O75175)	1.26	-0.0612	0.0363
USP22 (UniProt Q9UPT9)	0.237	-0.374	0.131
C10ORF76 (UniProt Q5T2E6)	0.613	-0.9	0.306
EHMT2 (UniProt Q96KQ7)	-0.273	0.132	0.0958
PPP4C (UniProt P60510)	0.166	0.813	0.205
ZNF706 (UniProt Q9Y5V0)	0.0846	1.04	0.371
YWHAG (UniProt P61981)	-0.403	0.0458	-0.0254
RNF121 (UniProt Q9H920)	-1.09	-1	-0.693
